Data published in publication PMC4741971, “The dual topoisomerase inhibitor A35 preferentially and specially targets topoisomerase 2α by enhancing pre-strand and post-strand cleavage and inhibiting DNA religation” (Oncotarget, 2015).
pIC50: −log10 of the molar value.

What was measured:
Type in all cases: biochemical
top1 [1] = molecular target: T1, top1 (Homo sapiens, UniProt P11387); assay: top1-mediated cleavage of […]'-end-labeled 117-bp oligonucleotide
T1 sequence (P11387 2-765): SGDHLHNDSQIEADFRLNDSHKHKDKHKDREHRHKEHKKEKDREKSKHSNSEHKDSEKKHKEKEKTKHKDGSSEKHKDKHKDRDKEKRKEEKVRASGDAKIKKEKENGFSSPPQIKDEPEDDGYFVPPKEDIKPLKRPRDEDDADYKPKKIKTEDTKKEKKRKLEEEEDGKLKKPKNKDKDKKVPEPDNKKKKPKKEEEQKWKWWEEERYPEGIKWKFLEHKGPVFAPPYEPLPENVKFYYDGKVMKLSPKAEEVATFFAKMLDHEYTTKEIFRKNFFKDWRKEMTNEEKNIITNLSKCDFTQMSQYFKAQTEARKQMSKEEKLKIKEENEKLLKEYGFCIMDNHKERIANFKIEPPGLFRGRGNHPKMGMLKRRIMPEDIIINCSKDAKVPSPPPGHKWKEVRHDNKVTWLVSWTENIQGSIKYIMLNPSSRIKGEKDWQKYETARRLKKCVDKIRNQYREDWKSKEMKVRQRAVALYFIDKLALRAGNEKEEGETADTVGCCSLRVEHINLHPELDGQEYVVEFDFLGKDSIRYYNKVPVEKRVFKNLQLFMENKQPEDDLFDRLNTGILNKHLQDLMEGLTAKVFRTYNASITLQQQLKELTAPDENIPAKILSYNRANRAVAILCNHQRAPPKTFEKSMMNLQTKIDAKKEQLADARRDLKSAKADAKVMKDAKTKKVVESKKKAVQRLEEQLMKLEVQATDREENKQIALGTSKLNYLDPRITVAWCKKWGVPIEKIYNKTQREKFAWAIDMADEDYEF

top1 [2] = molecular target: T1, top1; assay: top1-mediated DNA relaxation assay; also top1-mediated DNA cleavage and TARDIS in cells
top2α [3] = molecular target: T2, top2α (Homo sapiens, UniProt P11388); assay: top2α-mediated pBR322 DNA relaxation assay; also cleavage and religation assays and TARDIS in cells
T2 construct: gene TOP2A

top2α [4] = molecular target: T2, top2α; assay: top2α-mediated pBR322 DNA relaxation assay at […]
top2β = molecular target: T3, top2β (Homo sapiens, UniProt Q02880); assay: purified top2β-mediated pBR322 DNA cleavage assay
T3 construct: gene TOP2B
T3 sequence (Q02880 2-1626): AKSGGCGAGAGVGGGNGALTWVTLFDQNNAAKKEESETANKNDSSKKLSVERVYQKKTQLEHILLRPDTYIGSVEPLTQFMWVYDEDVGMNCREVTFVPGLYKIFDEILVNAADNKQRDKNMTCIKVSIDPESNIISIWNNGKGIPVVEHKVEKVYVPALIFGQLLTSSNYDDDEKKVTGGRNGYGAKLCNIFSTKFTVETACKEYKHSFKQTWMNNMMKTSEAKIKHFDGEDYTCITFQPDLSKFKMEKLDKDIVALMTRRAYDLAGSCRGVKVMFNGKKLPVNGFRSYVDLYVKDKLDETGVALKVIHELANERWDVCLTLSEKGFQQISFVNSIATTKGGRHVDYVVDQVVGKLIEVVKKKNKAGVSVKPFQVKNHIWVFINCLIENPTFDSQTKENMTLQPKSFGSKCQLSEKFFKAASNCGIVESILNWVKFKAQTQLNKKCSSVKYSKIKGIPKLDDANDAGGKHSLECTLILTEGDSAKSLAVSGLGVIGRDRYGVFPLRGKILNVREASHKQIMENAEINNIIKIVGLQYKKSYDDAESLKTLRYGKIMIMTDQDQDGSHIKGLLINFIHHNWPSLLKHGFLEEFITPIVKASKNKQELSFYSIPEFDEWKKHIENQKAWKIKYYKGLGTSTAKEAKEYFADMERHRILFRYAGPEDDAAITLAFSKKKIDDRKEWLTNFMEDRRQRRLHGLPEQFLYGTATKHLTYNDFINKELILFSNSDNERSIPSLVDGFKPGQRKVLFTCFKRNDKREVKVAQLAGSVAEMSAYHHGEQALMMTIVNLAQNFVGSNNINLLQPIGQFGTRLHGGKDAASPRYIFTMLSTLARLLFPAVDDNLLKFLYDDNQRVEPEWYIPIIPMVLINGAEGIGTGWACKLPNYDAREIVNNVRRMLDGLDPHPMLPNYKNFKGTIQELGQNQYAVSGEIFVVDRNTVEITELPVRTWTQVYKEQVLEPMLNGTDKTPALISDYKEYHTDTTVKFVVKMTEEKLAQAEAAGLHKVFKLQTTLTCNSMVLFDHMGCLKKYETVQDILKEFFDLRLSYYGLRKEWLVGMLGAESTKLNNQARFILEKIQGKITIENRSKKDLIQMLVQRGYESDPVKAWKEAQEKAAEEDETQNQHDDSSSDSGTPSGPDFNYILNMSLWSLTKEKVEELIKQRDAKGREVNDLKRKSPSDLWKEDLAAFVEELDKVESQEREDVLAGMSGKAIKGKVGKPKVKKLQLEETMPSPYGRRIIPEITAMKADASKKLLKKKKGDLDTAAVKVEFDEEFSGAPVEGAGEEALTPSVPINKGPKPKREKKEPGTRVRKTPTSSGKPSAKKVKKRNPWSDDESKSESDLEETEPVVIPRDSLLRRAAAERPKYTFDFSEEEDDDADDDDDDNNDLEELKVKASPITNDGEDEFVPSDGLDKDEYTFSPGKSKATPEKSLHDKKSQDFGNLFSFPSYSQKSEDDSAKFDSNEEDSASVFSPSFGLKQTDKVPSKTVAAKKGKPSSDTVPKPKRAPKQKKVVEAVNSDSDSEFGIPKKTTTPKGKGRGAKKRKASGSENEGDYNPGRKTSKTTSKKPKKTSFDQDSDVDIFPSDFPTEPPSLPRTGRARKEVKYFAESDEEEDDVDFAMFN

T2 sequence (P11388 whole entry): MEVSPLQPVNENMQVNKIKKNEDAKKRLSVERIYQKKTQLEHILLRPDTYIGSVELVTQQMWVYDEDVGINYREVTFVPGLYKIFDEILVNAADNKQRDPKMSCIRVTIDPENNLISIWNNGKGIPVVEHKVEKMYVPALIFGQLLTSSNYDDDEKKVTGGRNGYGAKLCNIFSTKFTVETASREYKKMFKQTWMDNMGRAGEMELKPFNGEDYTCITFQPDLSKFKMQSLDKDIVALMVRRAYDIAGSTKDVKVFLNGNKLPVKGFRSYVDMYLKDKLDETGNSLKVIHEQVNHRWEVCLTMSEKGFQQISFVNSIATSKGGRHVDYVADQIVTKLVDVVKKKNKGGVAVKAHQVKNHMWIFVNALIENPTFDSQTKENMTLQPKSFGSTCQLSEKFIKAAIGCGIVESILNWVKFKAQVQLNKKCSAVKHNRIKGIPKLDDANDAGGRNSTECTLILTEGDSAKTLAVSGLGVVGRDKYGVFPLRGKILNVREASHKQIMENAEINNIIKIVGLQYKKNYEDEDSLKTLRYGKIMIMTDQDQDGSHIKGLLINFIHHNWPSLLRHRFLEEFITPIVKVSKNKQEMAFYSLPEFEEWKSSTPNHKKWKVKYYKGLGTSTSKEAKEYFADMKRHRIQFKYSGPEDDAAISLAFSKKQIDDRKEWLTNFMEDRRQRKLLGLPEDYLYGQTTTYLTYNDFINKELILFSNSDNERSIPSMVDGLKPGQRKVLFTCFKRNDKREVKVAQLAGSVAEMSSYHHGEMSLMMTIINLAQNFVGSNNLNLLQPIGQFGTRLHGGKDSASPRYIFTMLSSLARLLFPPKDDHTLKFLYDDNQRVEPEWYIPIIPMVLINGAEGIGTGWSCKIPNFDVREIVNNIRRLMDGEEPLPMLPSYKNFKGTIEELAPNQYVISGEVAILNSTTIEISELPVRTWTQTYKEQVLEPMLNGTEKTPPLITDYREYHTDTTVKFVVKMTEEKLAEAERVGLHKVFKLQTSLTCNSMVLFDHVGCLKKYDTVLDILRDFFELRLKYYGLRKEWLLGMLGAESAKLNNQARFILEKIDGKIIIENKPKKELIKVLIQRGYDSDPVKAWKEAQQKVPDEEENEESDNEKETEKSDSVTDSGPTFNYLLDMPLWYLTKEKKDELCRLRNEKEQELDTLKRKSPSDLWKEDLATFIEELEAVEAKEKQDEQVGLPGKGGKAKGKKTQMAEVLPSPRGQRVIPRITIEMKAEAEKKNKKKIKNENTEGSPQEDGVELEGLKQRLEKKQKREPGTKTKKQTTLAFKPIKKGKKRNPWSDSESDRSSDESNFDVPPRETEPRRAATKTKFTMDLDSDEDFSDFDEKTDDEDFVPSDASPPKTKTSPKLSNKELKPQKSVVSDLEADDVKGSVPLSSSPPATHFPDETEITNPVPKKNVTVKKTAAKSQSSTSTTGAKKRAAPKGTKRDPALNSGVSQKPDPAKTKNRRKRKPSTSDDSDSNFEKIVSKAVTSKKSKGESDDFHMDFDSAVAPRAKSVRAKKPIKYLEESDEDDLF

CC[C@@]1(O)C(=O)OCc2c1cc1n(c2=O)Cc2cc3c(CN(C)C)c(O)ccc3nc2-1 [TPT, topotecan]
top1-mediated cleavage of 3'-end-labeled 117-bp oligonucleotide (top1 [1]): the DNA breakage effect was weak and far less than the positive control TPT (topotecan)

COc1ccc2c(c[n+]3c4c2ccc2c5c(cc(c24)CC3)OCO5)c1OC(=O)c1ccccc1 [A35]
pIC50 (top1 [2]): 4.66
pIC50 (top2α [3]): 6.25

COc1cc([C@@H]2c3cc4c(cc3[C@@H](O[C@@H]3O[C@@H]5CO[C@@H](C)O[C@H]5[C@H](O)[C@H]3O)[C@H]3COC(=O)[C@H]23)OCO4)cc(OC)c1O [VP16, etoposide]
top2α-mediated pBR322 DNA relaxation assay at 10 μM (top2α [4]): inhibitory activity of A35 on top top2α was much higher than that of etoposide (VP16)
purified top2β-mediated pBR322 DNA cleavage assay (top2β): A35 did not lead to DNA breakage mediated by top2β and the positive (VP16) control induced significant DNA breakage
